# Results reported in PubChem BioAssay AID1963863 (Molecular Pharmacology Branch, DTP, NCI, 2024).
# pIC50: −log10 of the molar value.
# System: 931267-113-T-J1-PDC KRAS spheroid with HUVEC/MSC, viability
# Experiment: Anticancer human tumor 931267-113-T-J1-PDC patient-derived colon adenocarcinoma cell line growth inhibition [KRAS2]
# Conditions: for pIC50: curve of first compound; for viability, T/C: stronger effect = lower value; for IC50: compound alone
# Summary of the method: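 KRAS-mutant tumor cells were grown as spheroids with HUVEC endothelial cells and human MSCs as stroma. Targeted agents were tested alone and with KRAS pathway inhibitors. Doses started at or near clinical Cmax, or 10 microM, descending half-log.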
# [1] = second compound 0.0316 µM, first compound 0.0316 µM
# [2] = second compound 0.0316 µM, first compound 0.1 µM
# [3] = second compound 0.0316 µM, first compound 0.316 µM
# [4] = second compound 0.0316 µM, first compound 1 µM
# [5] = second compound 0.0316 µM, first compound 3.16 µM
# [6] = second compound 0.0316 µM, first compound 10 µM
# [7] = second compound 0.1 µM, first compound 0.0316 µM
# [8] = second compound 0.1 µM, first compound 0.1 µM
# [9] = second compound 0.1 µM, first compound 0.316 µM
# [10] = second compound 0.1 µM, first compound 1 µM
# [11] = second compound 0.1 µM, first compound 3.16 µM
# [12] = second compound 0.1 µM, first compound 10 µM
# [13] = second compound 0.316 µM, first compound 0.0316 µM
# [14] = second compound 0.316 µM, first compound 0.1 µM
# [15] = second compound 0.316 µM, first compound 0.316 µM
# [16] = second compound 0.316 µM, first compound 1 µM
# [17] = second compound 0.316 µM, first compound 3.16 µM
# [18] = second compound 0.316 µM, first compound 10 µM
# [19] = second compound 1 µM, first compound 0.0316 µM
# [20] = second compound 1 µM, first compound 0.1 µM
# [21] = second compound 1 µM, first compound 0.316 µM
# [22] = second compound 1 µM, first compound 1 µM
# [23] = second compound 1 µM, first compound 3.16 µM
# [24] = second compound 1 µM, first compound 10 µM
# [25] = second compound 3.16 µM, first compound 0.0316 µM
# [26] = second compound 3.16 µM, first compound 0.1 µM
# [27] = second compound 3.16 µM, first compound 0.316 µM
# [28] = second compound 3.16 µM, first compound 1 µM
# [29] = second compound 3.16 µM, first compound 3.16 µM
# [30] = second compound 3.16 µM, first compound 10 µM
# 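Note: compound exposure lasted 7 days before the readout.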
# 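Throughout, for viability, T/C: 100% = DMSO vehicle control viability.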
structure (smiles),measurement,setting,value
O=C(c1cc(Cc2n[nH]c(=O)c3ccccc23)ccc1F)N1CCN(C(=O)C2CC2)CC1 + C=CC(=O)N1CCN(c2nc(OCC3CCCN3C)nc3c2CCN(c2cccc4cccc(C)c24)C3)CC1CC#N,pIC50,second compound 0.0316 µM,< 5.00
same,pIC50,second compound 0.1 µM,< 5.00
same,pIC50,second compound 0.316 µM,< 5.00
same,pIC50,second compound 1 µM,< 5.00
same,pIC50,second compound 3.16 µM,> 7.50
same,"viability, T/C",[1],91%
same,"viability, T/C",[2],91.8%
same,"viability, T/C",[3],90.8%
same,"viability, T/C",[4],109%
same,"viability, T/C",[5],113%
same,"viability, T/C",[6],103%
same,"viability, T/C",[7],84.7%
same,"viability, T/C",[8],99.4%
same,"viability, T/C",[9],81.3%
same,"viability, T/C",[10],79%
same,"viability, T/C",[11],73.9%
same,"viability, T/C",[12],84.7%
same,"viability, T/C",[13],84.6%
same,"viability, T/C",[14],96.5%
same,"viability, T/C",[15],87%
same,"viability, T/C",[16],69.3%
same,"viability, T/C",[17],76.1%
same,"viability, T/C",[18],72.5%
same,"viability, T/C",[19],72.2%
same,"viability, T/C",[20],79.3%
same,"viability, T/C",[21],87.2%
same,"viability, T/C",[22],69.4%
same,"viability, T/C",[23],80.2%
same,"viability, T/C",[24],62.5%
same,"viability, T/C",[25],0.28%
same,"viability, T/C",[26],0.21%
same,"viability, T/C",[27],0.3%
same,"viability, T/C",[28],0.29%
same,"viability, T/C",[29],0.28%
same,"viability, T/C",[30],0.43%
CCNC(=O)CC1N=C(c2ccc(Cl)cc2)c2cc(OC)ccc2-n2c(C)nnc21 (configuration not stated) + C=CC(=O)N1CCN(c2nc(OCC3CCCN3C)nc3c2CCN(c2cccc4cccc(C)c24)C3)CC1CC#N,pIC50,second compound 0.0316 µM,5.40
same,pIC50,second compound 0.1 µM,5.59
same,pIC50,second compound 0.316 µM,5.84
same,pIC50,second compound 1 µM,5.99
same,pIC50,second compound 3.16 µM,> 7.50
same,"viability, T/C",[1],92%
same,"viability, T/C",[2],80.3%
same,"viability, T/C",[3],80.2%
same,"viability, T/C",[4],51.9%
same,"viability, T/C",[5],61%
same,"viability, T/C",[6],38.1%
same,"viability, T/C",[7],92.5%
same,"viability, T/C",[8],81.4%
same,"viability, T/C",[9],70.1%
same,"viability, T/C",[10],60.6%
same,"viability, T/C",[11],45.4%
same,"viability, T/C",[12],41.6%
same,"viability, T/C",[13],72.4%
same,"viability, T/C",[14],74.7%
same,"viability, T/C",[15],66.5%
same,"viability, T/C",[16],52.9%
same,"viability, T/C",[17],43.7%
same,"viability, T/C",[18],38.9%
same,"viability, T/C",[19],82.1%
same,"viability, T/C",[20],69.1%
same,"viability, T/C",[21],61.1%
same,"viability, T/C",[22],51.1%
same,"viability, T/C",[23],39.6%
same,"viability, T/C",[24],31.5%
same,"viability, T/C",[25],0.31%
same,"viability, T/C",[26],0.3%
same,"viability, T/C",[27],0.26%
same,"viability, T/C",[28],0.17%
same,"viability, T/C",[29],0.16%
same,"viability, T/C",[30],0.17%
COc1cc(Nc2ncc3c(n2)-c2ccc(Cl)cc2C(c2c(F)cccc2OC)=NC3)ccc1C(=O)O + C=CC(=O)N1CCN(c2nc(=O)n(-c3c(C)ccnc3C(C)C)c3nc(-c4c(O)cccc4F)c(F)cc23)C(C)C1,pIC50,second compound 0.1 µM,< 5.00
same,pIC50,second compound 0.316 µM,< 5.00
same,pIC50,second compound 1 µM,< 5.00
same,pIC50,second compound 3.16 µM,< 5.00
same,pIC50,second compound 10 µM,< 5.00
same,"viability, T/C",[7],102%
same,"viability, T/C",[8],114%
same,"viability, T/C",[9],122%
same,"viability, T/C",[10],99.9%
same,"viability, T/C",[11],96.8%
same,"viability, T/C",[12],103%
same,"viability, T/C",[13],101%
same,"viability, T/C",[14],93.8%
same,"viability, T/C",[15],98%
same,"viability, T/C",[16],108%
same,"viability, T/C",[17],95.2%
same,"viability, T/C",[18],72.7%
same,"viability, T/C",[19],129%
same,"viability, T/C",[20],109%
same,"viability, T/C",[21],107%
same,"viability, T/C",[22],127%
same,"viability, T/C",[23],106%
same,"viability, T/C",[24],83.3%
same,"viability, T/C",[25],126%
same,"viability, T/C",[26],109%
same,"viability, T/C",[27],103%
same,"viability, T/C",[28],110%
same,"viability, T/C",[29],107%
same,"viability, T/C",[30],88.4%
same,"viability, T/C","second compound 10 µM, first compound 0.0316 µM",136%
same,"viability, T/C","second compound 10 µM, first compound 0.1 µM",111%
same,"viability, T/C","second compound 10 µM, first compound 0.316 µM",118%
same,"viability, T/C","second compound 10 µM, first compound 1 µM",127%
same,"viability, T/C","second compound 10 µM, first compound 3.16 µM",119%
same,"viability, T/C","second compound 10 µM, first compound 10 µM",90.3%
C=CC(=O)N1CCN(c2nc(OCC3CCCN3C)nc3c2CCN(c2cccc4cccc(C)c24)C3)CC1CC#N (configuration not stated),IC50,run of 08/26/2021,1.65 µM [middle of 5 runs]
same,IC50,run of 09/02/2021,1.62 µM [middle of 5 runs]
